Biological target: c-kit WT (Homo sapiens (Human), UniProt P10721)
Assay: Proliferation assay (CellTiter-Blue) on BaF3 Kit WT cell line
Type: cell-based
Conditions: BaF3 Kit WT cell line (murine Ba/F3 expressing Human Kit WT, with murine SCF), 48 hours
Procedure, shortened: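 Ba/F3 cells expressing human Kit WT, maintained in RPMI/10% FCS with 250 ng/ml murine SCF, were seeded at 2.10^4 cells/well and exposed to ½ serial dilutions (0–10 μM) for 48 h at 37° C. Viability was measured by CellTiter-Blue fluorescence (544Ex/590Em, 4 h) in triplicate as % of untreated proliferation.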

Sequence of c-kit WT (P10721 26-976): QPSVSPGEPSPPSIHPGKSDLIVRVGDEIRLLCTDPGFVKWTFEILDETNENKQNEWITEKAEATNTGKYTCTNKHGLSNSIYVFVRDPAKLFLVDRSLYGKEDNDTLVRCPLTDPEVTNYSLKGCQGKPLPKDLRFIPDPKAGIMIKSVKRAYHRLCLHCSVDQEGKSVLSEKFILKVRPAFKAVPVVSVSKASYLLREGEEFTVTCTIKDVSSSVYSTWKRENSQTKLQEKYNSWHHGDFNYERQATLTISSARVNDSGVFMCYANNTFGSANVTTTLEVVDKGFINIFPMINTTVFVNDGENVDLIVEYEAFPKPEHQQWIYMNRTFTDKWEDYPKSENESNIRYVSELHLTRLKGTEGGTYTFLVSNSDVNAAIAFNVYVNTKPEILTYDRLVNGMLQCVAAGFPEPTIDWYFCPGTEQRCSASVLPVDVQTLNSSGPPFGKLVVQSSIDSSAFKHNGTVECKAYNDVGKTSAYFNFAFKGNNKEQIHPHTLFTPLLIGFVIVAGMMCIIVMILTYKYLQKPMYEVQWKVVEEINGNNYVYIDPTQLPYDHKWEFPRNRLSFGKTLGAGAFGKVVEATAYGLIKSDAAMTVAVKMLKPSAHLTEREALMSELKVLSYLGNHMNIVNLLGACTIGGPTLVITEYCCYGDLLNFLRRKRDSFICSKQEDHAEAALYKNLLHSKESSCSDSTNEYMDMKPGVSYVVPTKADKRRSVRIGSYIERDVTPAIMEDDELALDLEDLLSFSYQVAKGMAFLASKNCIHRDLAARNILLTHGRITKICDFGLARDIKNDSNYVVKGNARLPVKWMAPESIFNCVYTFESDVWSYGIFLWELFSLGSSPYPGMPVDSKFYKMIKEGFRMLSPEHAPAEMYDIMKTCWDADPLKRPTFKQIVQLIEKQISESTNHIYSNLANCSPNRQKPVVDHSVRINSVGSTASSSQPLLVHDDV

Cc1cc2nc(-c3cccc(C(F)F)c3)[nH]c2cc1Nc1nc(-c2ccc(C(N)=O)cc2)cs1 [Compound 071, 4-{2-[2-(3-Difluoromethyl-phenyl)-6-methyl-3H-benzoimidazol-5-ylamino]-thiazol-4-yl}-benzamide] and Cc1cc2nc(-c3cccc(C(F)F)c3)[nH]c2cc1Nc1nc(-c2ccc(C#N)cc2)cs1 [Compound 069, 4-{2-[2-(3-Difluoromethyl-phenyl)-6-methyl-3H-benzoimidazol-5-ylamino]-thiazol-4-yl}-benzonitrile] cannot be ordered by IC50: no more than 1 µM for the first, no more than 1 µM for the second.

Cc1cc2c(cc1Nc1nc(-c3ccnc(Cl)c3)cs1)nc(-c1cccc(C(F)F)c1)n2C [Compound 119, [4-(2-Chloro-pyridin-4-yl)-thiazol-2-yl]-[2-(3-difluoromethyl-phenyl)-1,6-dimethyl-1H-benzoimidazol-5-yl]-amine] and Cc1cc2c(cc1Nc1nc(-c3cccnc3)cs1)nc(-c1cccc(C(C)C)c1)n2C [Compound 140, [2-(3-Isopropyl-phenyl)-1,6-dimethyl-1H-benzoimidazol-5-yl]-(4-pyridin-3-yl-thiazol-2-yl)-amine] cannot be ordered by IC50: no more than 1 µM for the first, no more than 1 µM for the second.

CCn1c(-c2cccc(C(F)(F)F)c2)nc2cc(Nc3nc(-c4cccnc4)cs3)c(C)cc21 [Compound 110, [1-Ethyl-6-methyl-2-(3-trifluoromethyl-phenyl)-1H-benzoimidazol-5-yl]-(4-pyridin-3-yl-thiazol-2-yl)-amine] and Cc1cc2c(cc1Nc1nc(-c3ccncc3)cs1)nc(-c1cccc(OC(F)(F)F)c1)n2C [Compound 083, [1,6-Dimethyl-2-(3-trifluoromethoxy-phenyl)-1H-benzoimidazol-5-yl]-(4-pyridin-4-yl-thiazol-2-yl)-amine] cannot be ordered by IC50: no more than 1 µM for the first, no more than 1 µM for the second.

Cc1cc2nc(-c3cnc4ccccc4c3)[nH]c2cc1Nc1nccc(-c2cccnc2)n1 [Compound 017, (6-Methyl-2-quinolin-3-yl-3H-benzoimidazol-5-yl)-(4-pyridin-3-yl-pyrimidin-2-yl)-amine] and Cc1cc2nc(-c3cccc(C(F)F)c3)[nH]c2cc1Nc1nccc(-c2cccnc2)n1 [Compound 030, [2-(3-Difluoromethyl-phenyl)-6-methyl-3H-benzoimidazol-5-yl]-(4-pyridin-3-yl-pyrimidin-2-yl)-amine] cannot be ordered by IC50: 1 to 10 µM for the first, no more than 1 µM for the second.

Cc1cc2nc(-c3ccc(C)c(C(F)(F)F)c3)[nH]c2cc1Nc1nc(-c2cccnc2)cs1 [Compound 056, [6-Methyl-2-(4-methyl-3-trifluoromethyl-phenyl)-3H-benzoimidazol-5-yl]-(4-pyridin-3-yl-thiazol-2-yl)-amine] and Cc1cc2nc(-c3cccc(C(F)(F)F)c3)[nH]c2cc1Nc1nc(-c2cncnc2)cs1 [Compound 062, [6-Methyl-2-(3-trifluoromethyl-phenyl)-3H-benzoimidazol-5-yl]-(4-pyrimidin-5-yl-thiazol-2-yl)-amine] cannot be ordered by IC50: no more than 1 µM for the first, no more than 1 µM for the second.

Cc1cc2[nH]c(-c3cccc(C(C)(C)C)c3)nc2cc1Nc1nc(-c2ccncc2)cs1 [Compound 153, [2-(3-tert-Butyl-phenyl)-6-methyl-1H-benzoimidazol-5-yl]-(4-pyridin-4-yl-thiazol-2-yl)-amine] and Cc1ccc(-c2nc3cc(Nc4nc(-c5ccncc5)cs4)c(C)cc3[nH]2)s1 [Compound 079, [6-Methyl-2-(5-methyl-thiophen-2-yl)-1H-benzoimidazol-5-yl]-(4-pyridin-4-yl-thiazol-2-yl)-amine] cannot be ordered by IC50: no more than 1 µM for the first, no more than 1 µM for the second.

Cc1cc2c(cc1Nc1nc(-c3cccnc3)cs1)nc(-c1ccc(CN3CCN(C)CC3)cc1)n2C [Compound 098, {1,6-Dimethyl-2-[4-(4-methyl-piperazin-1-ylmethyl)-phenyl]-1H-benzoimidazol-5-yl}-(4-pyridin-3-yl-thiazol-2-yl)-amine] and Cc1cc2c(cc1Nc1nc(-c3ccncc3)cs1)nc(-c1cccc(N3CCN(C)CC3)c1)n2C [Compound 096, {1,6-Dimethyl-2-[3-(4-methyl-piperazin-1-yl)-phenyl]-1H-benzoimidazol-5-yl}-(4-pyridin-4-yl-thiazol-2-yl)-amine] fall in the same range of IC50: 1 to 10 µM for the first, 1 to 10 µM for the second.

Cc1cccc(-c2nc3cc(Nc4nc(-c5ccncc5)cs4)c(C)cc3n2C(C)C)c1 [Compound 102, (1-Isopropyl-6-methyl-2-m-tolyl-1H-benzoimidazol-5-yl)-(4-pyridin-4-yl-thiazol-2-yl)-amine] and Cc1cc2c(cc1Nc1nc(-c3ccc(C#N)cc3)cs1)nc(-c1cccc(C(C)(C)C)c1)n2C [Compound 144, 4-{2-[2-(3-tert-Butyl-phenyl)-1,6-dimethyl-1H-benzoimidazol-5-ylamino]-thiazol-4-yl}-benzonitrile] cannot be ordered by IC50: no more than 1 µM for the first, no more than 1 µM for the second.

Cc1cc2nc(-c3cc(CN4CCN(C)CC4)cc(-c4cnco4)c3)[nH]c2cc1Nc1nccc(-c2cccnc2)n1 [Compound 039, {6-Methyl-2-[3-(4-methyl-piperazin-1-ylmethyl)-5-oxazol-5-yl-phenyl]-3H-benzoimidazol-5-yl}-(4-pyridin-3-yl-pyrimidin-2-yl)-amine] and Cc1cc2[nH]c(-c3cccc(F)c3)nc2cc1Nc1nc(-c2cccnc2)cs1 [Compound 123, [2-(3-Fluoro-phenyl)-6-methyl-1H-benzoimidazol-5-yl] (4-pyridin-3-yl-thiazol-2-yl)-amine] fall in the same range of IC50: 1 to 10 µM for the first, 1 to 10 µM for the second.

C=CS(=O)(=O)Nc1cc(-c2nc3cc(Nc4nc(-c5ccncc5)cs4)c(C)cc3n2C)cc(C(F)(F)F)c1 [Compound 122, Ethenesulfonic acid {3-[1,6-dimethyl-5-(4-pyridin-4-yl-thiazol-2-ylamino)-yl]-5-trifluoromethyl-phenyl}-amide] and Cc1cc2nc(-c3cccc(OC(F)(F)F)c3)[nH]c2cc1Nc1nc(-c2ccc(C#N)cc2)cs1 [Compound 075, 4-{2-[6-Methyl-2-(3-trifluoromethoxy-phenyl)-3H-benzoimidazol-5-ylamino]-thiazol-4-yl}-benzonitrile] cannot be ordered by IC50: 1 to 10 µM for the first, no more than 1 µM for the second.

— patent publication US10202370B2, “Benzimidazole derivatives as selective proteine kinase inhibitors” (AB SCIENCE, priority 2013, dated 2019)
